From PMC2844763 (Bioorganic & medicinal chemistry letters, 2010)
Entries after “also recorded” stand apart in the source; their conditions may differ.

Columns and labels:
E. coli MetAP = E. coli MetAP (Escherichia coli, UniProt P0AE18); experiment: cell-based MetAP assay; settings: Ca(II) treated cells; result in words
E. coli AS19 strain = settings: result in words; ref [11] and [16]; cited from earlier work
[1] = system: E. coli MetAP in the Fe(II)-form; settings: result in words; ref [11] and [16]; cited from earlier work
MetAP in the Co(II)-form = settings: result in words; ref [10]; cited from earlier work

Chain of E. coli MetAP (P0AE18 whole entry): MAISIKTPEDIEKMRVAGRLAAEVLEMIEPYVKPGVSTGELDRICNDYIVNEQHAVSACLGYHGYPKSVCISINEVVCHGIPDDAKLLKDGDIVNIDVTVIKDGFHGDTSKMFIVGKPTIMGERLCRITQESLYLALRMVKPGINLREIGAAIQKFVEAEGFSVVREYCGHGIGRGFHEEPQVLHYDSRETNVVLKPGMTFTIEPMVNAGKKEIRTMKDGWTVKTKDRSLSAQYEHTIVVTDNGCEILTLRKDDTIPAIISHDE

Cc1nc(-c2ccc(O)c(O)c2)cs1 [compound 1]
inhibition of intracellular Met-AMC hydrolysis (cellular MetAP activity) (E. coli MetAP): displayed inhibition; also recorded: inhibited in a time-dependent fashion

COc1ccc(-c2csc(C)n2)cc1OC [compound 2]
inhibition of intracellular Met-AMC hydrolysis (cellular MetAP activity) (E. coli MetAP): decreased potency

Cc1nc(-c2cccc(O)c2)cs1 [compound 3]
inhibition of intracellular Met-AMC hydrolysis (cellular MetAP activity) (E. coli MetAP): no inhibition

Cc1nc(-c2ccc(O)cc2O)cs1 [compound 4]
inhibition of intracellular Met-AMC hydrolysis (cellular MetAP activity) (E. coli MetAP): no inhibition

O=C(NC1CC1)c1ccc(-c2ccc(O)c(O)c2)s1 [compound 22]
inhibition of intracellular Met-AMC hydrolysis (cellular MetAP activity) (E. coli MetAP): exceptions

O=C(NC1CC1)c1ccsc1-c1ccc(O)c(O)c1 [compound 23]
inhibition of intracellular Met-AMC hydrolysis (cellular MetAP activity) (E. coli MetAP): exceptions

O=C(O)c1ccc(-c2ccccc2Cl)o1 [compound 28]
inhibition of bacterial growth (E. coli AS19 strain): did not halt bacterial growth
inhibition of purified MetAP in the Fe(II)-form [1]: weak inhibition

O=C(O)c1ccc(-c2cc(Cl)ccc2Cl)o1 [compound 29]
inhibition of bacterial growth (E. coli AS19 strain): did not halt bacterial growth
inhibition of purified MetAP in the Fe(II)-form [1]: weak inhibition

O=C(Nc1nccs1)C(=O)NC1CCCC1 [compound 30]
inhibition of bacterial growth (E. coli AS19 strain): did not halt bacterial growth
potency and selectivity towards purified MetAP in the Co(II)-form (MetAP in the Co(II)-form): highly potent and selective
inhibition of intracellular Met-AMC hydrolysis (cellular MetAP activity) (E. coli MetAP): no inhibition
inhibition of purified MetAP in the Fe(II)-form [1]: weak inhibition

O=C(NCc1ccccn1)C(=O)Nc1nccs1 [compound 31]
inhibition of bacterial growth (E. coli AS19 strain): did not halt bacterial growth
potency and selectivity towards purified MetAP in the Co(II)-form (MetAP in the Co(II)-form): highly potent and selective
inhibition of intracellular Met-AMC hydrolysis (cellular MetAP activity) (E. coli MetAP): no inhibition
inhibition of purified MetAP in the Fe(II)-form [1]: weak inhibition
